The structures appear in SMILES notation. “And” between values parts separate entries of the source, which are not always exact repeats. Equal entries are not always repeated.

EC50 data for two compounds are collected here from PubChem BioAssay AID1900 (Broad Institute, 2009).

The assay relates to SK(-)GAS Streptococcus pyogenes + kanamycin, BacTiterGlo viability, 6 h. The assay can be described thus: Streptococcus pyogenes SK(-)GAS viability under kanamycin – luminescence, BacTiterGlo, confirmation, counter-screen for streptokinase expression inhibitor project, dose response (AID 1900).

Turning to `CNC(CC(C)C)C(=O)NC1C(=O)NC(CC(N)=O)C(=O)NC2C(=O)NC3C(=O)NC(C(=O)NC(C(=O)O)c4cc(O)cc(O)c4-c4cc3ccc4O)C(O)c3ccc(c(Cl)c3)Oc3cc2cc(c3OC2OC(CO)C(O)C(O)C2OC2CC(C)(N)C(O)C(C)O2)Oc2ccc(cc2Cl)C1O` (configuration not stated), the EC50 was 211 nM. Consider `CN(C)c1ccnc2c[cH-]cc12.[Fe].c1ccc(-[c-]2[c-](-c3ccccc3)[c-](-c3ccccc3)[c-](-c3ccccc3)[c-]2-c2ccccc2)cc1` (configuration not stated), for which the EC50 was 989 nM and 334 nM.

What is called EC50 is the concentration giving half of the maximal effect.
